Reference: patent publication US7803910B2, “Soluble CD164 polypeptides” (Merck Serono S.A., priority 2005, dated 2010)

Legend:
[1] = system: peritoneal recruitment of macrophages; test: Thioglycollate-induced leukocyte peritoneal recruitment assay; type: in vivo, C3H mice; conditions: 1 mg/kg
Protocol: The effect of a sCD164 variant on immune cells recruitment was tested using the thioglycollate-induced leukocyte peritoneal recruitment assay. In this example the capacity of ssCD164-Fc (SEQ ID NO: 16) to decrease monocytes/macrophage recruitment was evaluated.
Forty-eight hours after the challenge, the animals were sacrificed and the lavage of the peritoneal cavity was conducted using 2×5 ml PBS-1 mM EDTA (+4° C.). After centrifugation (10 min at 3000 rpm), the pellet was resuspended in 1 ml PBS. The peritoneal cells were counted using a Beckman/Coulter counter. Dexamethasone (1 mg/kg), the anti-inflammatory compound was used as reference positive control.

[2] = system: LPS-induced TNF-α release; test: LPS induced TNF-α release animal model (Example 10); type: in vivo, C3H/HeN mice; conditions: 0.1 mg/kg, sc, 15 minutes prior to LPS; plasma 90 minutes after LPS; p<0.001
Protocol: LPS(O111:B4; SIGMA) is injected (0.3 mg/kg, ip) in C3H/HeN mice (Charles River, France). Ninety minutes later blood is sampled and plasma TNF-α is determined using an ELISA kit (R&D). The CD164 variant to be tested and dexamethasone are diluted in PBS and injected (Sf-CD164 at 0.03, 0.1 and 0.3 mg/kg, iv; or dexamethasone at 0.1 mg/kg, sc) 15 minutes prior to LPS administration.

C3H mice = test: Concanavalin A-induced hepatitis in mice; type: in vivo; conditions: 0.3 mg/kg, sc
From the text: Several sCD164 variants have been shown in vitro to inhibit secretion of certain cytokines by ConA-stimulated human peripheral blood mononuclear cells (PBMC), see Examples 2 and 3 above. Since cytokines play a crucial role in T-cell induced ConA induced liver hepatitis (Seino et al. 2001, Kusters, 1996; Toyonaga et al. 1994), the present model was used to further test the sCD164 variants.
Eighteen hours later, the animals were sacrificed and the blood was sampled. Serum levels of transaminases (alanine transaminase (ALAT), aspartate aminotransferase (ASAT)) were determined in serum using a clinical analyzer (Hitachi). Dexamethasone (0.3 mg/kg, sc) was used as reference.

Balb/c mice = test: K/BxN serum transfer model of arthritis; type: in vivo; conditions: 10 mg/kg sc once daily, 3 days per week
Protocol: This is a passive model of arthritis, induced by serum transfer of K/B×N mice (spontaneously develop arthritis) to naïve mice. This model depends on macrophages and neutrophils. Inflammatory cytokines such as TNFα and IL-1β play an important role in the development of the disease.
Eight week old Balb/c mice (Charles River) received by iv route 150 μl of K/B×N serum (Charles McKay, Australia), containing high level of auto-antibodies against glucose-6-phosphate isomerase. They evolved severe arthritis assessed with a clinical score (0-12) evaluating the presence of swelling, erythema, edema, joint rigidity and ankylosis. The final score was the sum of scores on individual paws. The swelling of ankle, fore paw and hind paw was measure using a caliper. The clinical score and the swelling were determined every day. Fourteen days after the induction of the disease blood was sampled to determine osteocalcin and the legs were removed and fixed in formalin for histology.
Enbrel® (10 mg/kg, sc, once daily, 3 days a week) was used as reference compound.

female mice (Balb/c) = test: Dextran Sodium Sulfate-induced ulcerative colitis model; type: in vivo
Protocol: The DSS model of colitis mimics some aspects of the human affection such as macrophage infiltration and up regulation of inflammatory cytokines (i.e. TNFα, IL-1p, IL-6) in the colon mucosa.
Ulcerative colitis (UC) was induced in female mice (Balb/c, 20-22 g, Elevage Janvier) by Dextran Sodium Sulfate (DSS 4%) administered in drinking water (oral route). The mice had free access to DSS during 7 days. Body weight was determined daily. The severity of the UC was assessed by a clinical score estimating the constituency of the stool (0=firm, 1=loose, 2=diarrhea) and the presence of blood (0=no blood, 1=occult blood, 2=gross rectal bleeding). Seven days after the induction of the disease, the animals were sacrificed. The length and the weight of the colon were determined and the ratio Weight/Length/100 g body weight was calculated. The spleen weight was also determined. Blood was sampled to determine serum amyloid protein (SAA) using a specific ELISA.
Test substances or vehicle (PBS/0.02% BSA) was administered at days 3, 4, 5 and 6 after the induction of the UC. Enbrel® (1 mg/kg, sc) was used as reference compound. Three studies were performed as per the following table:
In Study 3, the content of IL-1β in the colon was also measured.

[3] = Study 1, reference 1 mg/kg, ip (so in the source)

Compound: C[C@@H]1C[C@H]2[C@@H]3CCC4=CC(=O)C=C[C@]4(C)[C@@]3(F)[C@@H](O)C[C@]2(C)[C@@]1(O)C(=O)CO [Dexamethasone, reference compound]
- reduction of peritoneal recruitment of macrophages ([1]; iv): 94%
- reduction of peritoneal recruitment of macrophages ([1]; sc): 61%
- inhibition of LPS-induced TNF-α release [2]: 72%
- reduction of the level of serum transaminases (C3H mice): 96%

Compound: Enbrel® [reference compound]
- decrease of clinical score (Balb/c mice; Study 1): 25%
- decrease of paw swelling (Balb/c mice; Study 1): 36%
- decrease of serum osteocalcin (Balb/c mice; Study 1): 86%
- decrease of clinical score (Balb/c mice; Study 2): 31%
- decrease of paw swelling (Balb/c mice; Study 2): 38%
- decrease of serum osteocalcin (Balb/c mice; Study 2): 64%
- body weight loss (female mice (Balb/c); [3]): not prevented
- colon reduction, length (female mice (Balb/c); [3]): −24%
- colon reduction, ratio weight/length (female mice (Balb/c); [3]): −29%
- increase in serum amyloid protein A (female mice (Balb/c); [3]): −37%
- splenomegaly (female mice (Balb/c); [3]): not prevented
- clinical score (female mice (Balb/c); Study 1, reference 1 mg/kg, ip (so in the source), day 6): −23%
- colon reduction, length (female mice (Balb/c); Study 2, 1 mg/kg, sc): −17%
- colon reduction, ratio weight/length (female mice (Balb/c); Study 2, 1 mg/kg, sc): −31%
- increase in serum amyloid protein A (female mice (Balb/c); Study 2, 1 mg/kg, sc): −36%
- splenomegaly (female mice (Balb/c); Study 2, 1 mg/kg, sc): not improved
- clinical score (female mice (Balb/c); Study 2, 1 mg/kg, sc, day 5): −21%
- colon reduction, length (female mice (Balb/c); Study 3, 1 mg/kg, sc): −29%
- colon reduction, ratio weight/length (female mice (Balb/c); Study 3, 1 mg/kg, sc): −33%
- content of IL-1β in colon (female mice (Balb/c); Study 3, 1 mg/kg, sc): trended to reduce
- serum amyloid A protein (female mice (Balb/c); Study 3, 1 mg/kg, sc): trended to reduce
- splenomegaly (female mice (Balb/c); Study 3, 1 mg/kg, sc): −27%
- body weight loss (female mice (Balb/c); Study 3, 1 mg/kg, sc, day 5): −83%
- clinical score (female mice (Balb/c); Study 3, 1 mg/kg, sc, day 5): −38%
- clinical score (female mice (Balb/c); Study 3, 1 mg/kg, sc, day 7): −30%
